Marks after values point to notes of the source that are not given here.
Assays:
Type in all cases: in vivo, human
CXCL13 = assay: RA study biomarker: CXCL13
C3 = assay: SLE study biomarker: C3
Experimental: (§1) The following biomarkers were explored according to the biomarker objectives provided above in the Study Objectives. In Table 13, biomarkers are measured at baseline and subsequent timepoints during and after treatment. One set of biomarkers evaluated is the plasmablast signature. Plasmablasts are rapidly dividing, short-lived antibody secreting cells. While they represent a small proportion of B cells in the blood, they are responsible for a majority of antibody transcripts found in whole blood mRNA. The plasmablast signature comprises the biomarkers IgJ, Mzbl, and Txndc5. The gene expression of IgJ, Mzbl, and Txndc5 may be measured, for example, a polypeptide expression by evaluating the level of mRNA for said gene in a patient's blood relative to a reference level.

Total IgG [1] = assay: SLE study biomarker: total IgG
Total IgG [2] = assay: RA study biomarker: total IgG
Experimental: […] The biomarkers evaluated in this assessment were chemokine [C-C motif] ligand 4 (CCL4), IL-6, and TNF-like cytokine 1A (TL1A). Total IgM, IgG, rheumatoid factor IgM autoantibody (RF), CCL4, TL1A, IL-6, and anti-CCP autoantibody (ACPA IgG) levels were analyzed with immunoassays. CD19^+ B cells and CD3^+ T cells were measured by flow cytometry. The proportion of patients achieving an ACR50 response at week 12 and the change in DAS28 score by week 12 were assessed relative to seropositivity (RF and/or ACPA positive at baseline) or baseline levels of RF in both cohorts. To select which biomarkers to evaluate in this trial, BTK-dependent myeloid biomarkers were identified using peripheral blood CD14^+ monocytes stimulated with immune-complexes in the presence or absence of a BTK inhibitor. In brief, the expression levels of genes in human monocytes were assayed under conditions of no stimulation; with human serum albumin immune complex stimulation; with stimulation and a low concentration of a BTK inhibitor with similar characteristics to fenebrutinib; or with stimulation and a high concentration of the BTK inhibitor. […] Genes annotated with cytokine activity were selected. The color bar represents normalized gene expression.

C4 = assay: SLE study biomarker: C4
Experimental: as §1

[3] = tested on: Plasmablast signature (IgJ, Mzb1, Txndc5); assay: SLE study biomarker: plasmablast signature (RNA from blood)
Experimental: as §1

RA study: safety = assay: RA study: safety
Source text: Investigator conducted assessments: Joint counts and Physician's Global Assessment of Arthritis visual analog scale (VAS), safety assessments (adverse events, vital signs, concomitant medications, review of laboratory data). For Cohort 1 only: SC comparator drug injection; For Cohorts 1 and 2: Administration of oral study drug.

CD19+ B cells = assay: RA study: peripheral CD19+ B cells (flow cytometry)
Experimental: (§2) Biomarkers were evaluated in serum or plasma samples at baseline and weeks 1, 4, and 12 in patients with available samples (cohort 1: n=438; cohort 2: n=86). The biomarkers evaluated in this assessment were chemokine [C-C motif] ligand 4 (CCL4), IL-6, and TNF-like cytokine 1A (TL1A). Total IgM, IgG, rheumatoid factor IgM autoantibody (RF), CCL4, TL1A, IL-6, and anti-CCP autoantibody (ACPA IgG) levels were analyzed with immunoassays. CD19^+ B cells and CD3^+ T cells were measured by flow cytometry. The proportion of patients achieving an ACR50 response at week 12 and the change in DAS28 score by week 12 were assessed relative to seropositivity (RF and/or ACPA positive at baseline) or baseline levels of RF in both cohorts. To select which biomarkers to evaluate in this trial, BTK-dependent myeloid biomarkers were identified using peripheral blood CD14^+ monocytes stimulated with immune-complexes in the presence or absence of a BTK inhibitor. In brief, the expression levels of genes in human monocytes were assayed under conditions of no stimulation; with human serum albumin immune complex stimulation; with stimulation and a low concentration of a BTK inhibitor with similar characteristics to fenebrutinib; or with stimulation and a high concentration of the BTK inhibitor. […] Genes annotated with cytokine activity were selected. The color bar represents normalized gene expression.

Anti-dsDNA = assay: SLE study biomarker: anti-dsDNA autoantibodies; conditions: patients positive at baseline (>30 IU/mL)
ACPA IgG = assay: RA study biomarker: ACPA IgG
Experimental: as §2

ESR = assay: RA study: ESR versus baseline
Source text: As used herein, “ESR” refers to “Erythrocyte Sedimentation Rate”, which is a test that indirectly measures the degree of inflammation in the body by measuring how quickly red blood cells settle at the bottom of a test tube containing a sample of a patient's blood. See www.healthline.com/health/esr (last visited Aug. 7, 2018). A positive ESR may be determined using the Westergren method according to specifications by the International Council for Standardization in Haematology, or by automated methods (e.g., TEST1 from Alifax). See https://icsh(dot)org/guidelines; Lou, J. M. et al., Int. Jnl. Lab. Hem. 2011, 33:125-132.
Disease Activity Score 28. The DAS 28-4 (CRP) and the DAS 28-4 (ESR) are calculated as follows. Assessments: (i) Tender joint count of 28 joints (TJC28), square-root transformed; (ii) Swollen joint count of 28 joints (SJC28), square-root transformed; (iii) Acute-phase reactant (erythrocyte sedimentation rate [ESR mm/hr] or high sensitivity C-reactive protein [hsCRP mg/L]), log transformed; (iv) Patient's global assessment of disease activity on visual analog scale (0-100 mm).

With `C[C@H]1CN(C2COC2)CCN1c1ccc(Nc2cc(-c3ccnc(N4CCn5c(cc6c5CC(C)(C)C6)C4=O)c3CO)cn(C)c2=O)nc1` [fenebrutinib, (S)-2-(3′-(hydroxymethyl)-1-methyl-5-((5-(2-methyl-4-(oxetan-3-yl)piperazin-1-yl)pyridin-2-yl)amino)-6-oxo-1,6-dihydro-[3,4′-bipyridin]-2′-yl)-7,7-dimethyl-2,3,4,6,7,8-hexahydro-1H-cyclopenta[4,5]pyrrolo[1,2-a]pyrazin-1-one] as the compound, how does the “CXCL13 Reduction as % of Baseline” value (CXCL13; Cohort 1, 50 mg QD, Week 4) read?
Its value is 63%*.

And the “CXCL13 Reduction as % of Baseline” value (CXCL13; Cohort 1, 50 mg QD, Week 12)?
The value was 62%*.

What about the “CXCL13 Reduction as % of Baseline” value (CXCL13; Cohort 1, 150 mg QD, Week 4) of the same compound?
Its value is 65%*.

And the “CXCL13 Reduction as % of Baseline” value (CXCL13; Cohort 1, 150 mg QD, Week 12)?
Its value is 58%*.

And the “CXCL13 Reduction as % of Baseline” value (CXCL13; Cohort 1, 200 mg BID, Week 4)?
Its value is 67%*.

And the “CXCL13 Reduction as % of Baseline” value (CXCL13; Cohort 1, 200 mg BID, Week 12)?
Its value is 62%*.

And the “C3, Median Change from Baseline at Week 48” value (C3; 150 mg QD)?
The value was “+0.01 g/L”.

And the “C3, Median Change from Baseline at Week 48” value (C3; 200 mg BID)?
Its value is -0.01 g/L.

And the “Total IgG, Median Change from Baseline at Week 48” value (Total IgG [1]; 150 mg QD)?
Its value is −1.25* g/L.

What about the “Total IgG, Median Change from Baseline at Week 48” value (Total IgG [1]; 200 mg BID) of the same compound?
Its value is −1.56* g/L.

And the “Total IgG Reduction as % of Baseline” value (Total IgG [2]; Cohort 1, 150 mg QD, Week 4)?
Its value is 97%*.

What about the “Total IgG Reduction as % of Baseline” value (Total IgG [2]; Cohort 1, 150 mg QD, Week 8) of the same compound?
Its value is 94%*.

And the “Total IgG Reduction as % of Baseline” value (Total IgG [2]; Cohort 1, 150 mg QD, Week 12)?
The value was 95%*.

And the “Total IgG Reduction as % of Baseline” value (Total IgG [2]; Cohort 1, 200 mg BID, Week 4)?
The value was 95%*.

What about the “Total IgG Reduction as % of Baseline” value (Total IgG [2]; Cohort 1, 200 mg BID, Week 8) of the same compound?
Its value is 92%*.

And the “Total IgG Reduction as % of Baseline” value (Total IgG [2]; Cohort 1, 200 mg BID, Week 12)?
The value was 93%*.

What about the “IgG absolute reduction relative to placebo” value (Total IgG [2]; cohort 1, 200 mg twice daily, by week 12) of the same compound?
Its value is -115 mg/dL.

What about the “IgG reduction relative to placebo” value (Total IgG [2]; cohort 2, 200 mg twice daily, by week 12) of the same compound?
The value was -101 mg/dL.

What about the “C4, Median Change from Baseline at Week 48” value (C4; 150 mg QD) of the same compound?
Its value is “+0.02* g/L”.

What about the “C4, Median Change from Baseline at Week 48” value (C4; 200 mg BID) of the same compound?
The value was “+0.01* g/L”.

What about the “Plasmablast signature, Median Change from Baseline at Week 48” value ([3]; 150 mg QD) of the same compound?
Its value is −54.3%*.

And the “Plasmablast signature, Median Change from Baseline at Week 48” value ([3]; 200 mg BID)?
Its value is −51.7%*.

What about the overall safety profile (RA study: safety; RA study) of the same compound?
Its overall safety profile is “comparable to placebo and ADA”.

What about the “Grade 3 LFT elevations” value (RA study: safety; fenebrutinib arms versus placebo and ADA) of the same compound?
Its value is “numerically more”.

What about the “peripheral CD19+ B cells relative to placebo” value (CD19+ B cells; cohort 1 and cohort 2, by week 12) of the same compound?
Its value is −4-13%.

What about the “transient increase of peripheral CD19+ B cells relative to placebo” value (CD19+ B cells; cohort 1 and cohort 2, fenebrutinib treated groups, by week 1) of the same compound?
The value was 45-79%.

What about the “Anti-dsDNA, Median Change from Baseline at Week 48” value (Anti-dsDNA; 150 mg QD) of the same compound?
The value was −38.3* IU/ml.

What about the “Anti-dsDNA, Median Change from Baseline at Week 48” value (Anti-dsDNA; 200 mg BID) of the same compound?
The value was −75.7* IU/ml.

And the “ACPA IgG levels relative to placebo” value (ACPA IgG; cohort 1)?
The value was “not significantly changed relative to placebo”.

What about the “ACPA IgG levels change” value (ACPA IgG; cohort 2, 200 mg twice daily, by week 12 (+15% in the placebo group)) of the same compound?
Its value is −24%.

What about the “ESR, % of BL ESR” value (ESR; Cohort 1, 200 mg BID, Week 12) of the same compound?
Its value is 63%.

And the ESR levels (ESR; Cohort 1, Weeks 2, 4 and 8)?
The ESR levels was “reduced ESR levels”.

What about the ESR levels (ESR; Cohort 2, Week 8 and Week 12) of the same compound?
The ESR levels was “reduced ESR levels”.
